In US20250161473A1, “EXATECAN DERIVATIVE-ANTIBODY CONJUGATE AND MEDICAL USE THEREOF” (Gan & Lee Pharmaceuticals Co., Ltd., priority 2022, published 2025):
Read-outs that look alike come from different tables or passages of the source.

Tested on: MDA-MB-468 cell line with high TROP-2 expression
Assay: Inhibition test of Exatecan derivatives (payload) on in vitro proliferation of tumor cells
Assay type: cell-based, human
Conditions: read-out: IC50 of MDA-MB-468 cell proliferation inhibition in vitro
Procedure: The cell line used in this experiment is the MDA-MB-468 cell line with high TROP-2 expression (Nanjing Cobioer Biosciences Co., Ltd., catalog number: CBP60387). Prepare cell suspension with fresh cell culture medium containing 10% FBS at a density of 3×10^3 cells/mL, add 90 μL per well into an all-white 96-well cell culture plate (Beyotime, item number: FCP968-80pcs), 5% carbon dioxide 37° C. for 24 h. Compounds 1-36 were formulated with DMSO to 1 mM, respectively. Add 20 μL of different samples to be tested in the first column of the 96-well U-bottom dispensing plate, and the sample concentration is 1000 uM; add 20 μL DMSO to each well of the second to tenth columns. Take 5 μL of the sample from the first column to 20 μL DMSO in the second column, mix well, take 5 μL to the third column, and so on to the ninth column. Take 5 μL of the medicine from each well of the dispensing plate to 95 μL of DMEM medium, and mix well. Add 10 μL of prepared samples to be tested at different concentrations to the culture plate, and duplicate wells for each sample. 5% carbon dioxide and cultured at 37° C. for 3 days. Add 50 μL of CTG (CellTiter-Glo® Luminescent Cell Viability Assay, Promega, item number: G7573) to each well, mix on a shaker at room temperature for 30 minutes, incubate for 10 minutes, and read chemiluminescence on a microplate reader (TECAN, Spark). Graphpad Prism 8 software used for data analysis.

## CC[C@@]1(O)C(=O)OCc2c1cc1n(c2=O)Cc2c-1nc1cc(F)c(C)c3c1c2[C@@H](NC(=O)c1ccc(O)c(Cl)c1)CC3 [Compound 6]
Homo sapiens, MDA-MB-468, 72 h
  IC50: 9.81 nM

## CC[C@@]1(O)C(=O)OCc2c1cc1n(c2=O)Cc2c-1nc1cc(F)c(C)c3c1c2[C@@H](NC(=O)[C@@H]1CCCN1C(=O)CO)CC3 [Compound 5]
Homo sapiens, MDA-MB-468, 72 h
  IC50: 19.3 nM

## CC[C@@]1(O)C(=O)OCc2c1cc1n(c2=O)Cc2c-1nc1cc(F)c(C)c3c1c2[C@@H](NC(=O)Cc1ccc(N)cc1OC)CC3 [Compound 19]
Homo sapiens, MDA-MB-468, 72 h
  IC50: 7.52 nM

## CC[C@@]1(O)C(=O)OCc2c1cc1n(c2=O)Cc2c-1nc1cc(F)c(C)c3c1c2[C@@H](NC(=O)Cc1ccc(O)cc1)CC3 [Compound 22]
Homo sapiens, MDA-MB-468, 72 h
  IC50: 2.6 nM

## CC[C@@]1(O)C(=O)OCc2c1cc1n(c2=O)Cc2c-1nc1cc(F)c(C)c3c1c2[C@@H](NC(=O)N[C@@H]1CCNC1)CC3 [Compound 14]
Homo sapiens, MDA-MB-468, 72 h
  IC50: 48 nM

## CC[C@@]1(O)C(=O)OCc2c1cc1n(c2=O)Cc2c-1nc1cc(F)c(C)c3c1c2[C@@H](NC(=O)C1CCCN1)CC3 (some centres unmarked) [Compound 36]
MDA-MB-468 cells, 3 days, CellTiter-Glo
  IC50: 6.34 nM

## CC[C@@]1(O)C(=O)OCc2c1cc1n(c2=O)Cc2c-1nc1cc(F)c(C)c3c1c2[C@@H](NC(=O)c1ccc(Cl)c(O)c1)CC3 [Compound 7]
Homo sapiens, MDA-MB-468, 72 h
  IC50: 9.45 nM

## CC[C@@]1(O)C(=O)OCc2c1cc1n(c2=O)Cc2c-1nc1cc(F)c(C)c3c1c2[C@@H](NC(=O)[C@@H]1CCCN1)CC3 [Compound 4]
Homo sapiens, MDA-MB-468, 72 h
  IC50: 4.32 nM

## CC[C@@]1(O)C(=O)OCc2c1cc1n(c2=O)Cc2c-1nc1cc(F)c(C)c3c1c2[C@@H](NC(=O)Cc1ccc(N)cc1F)CC3 [Compound 21]
Homo sapiens, MDA-MB-468, 72 h
  IC50: 3.05 nM

## CC[C@@]1(O)C(=O)OCc2c1cc1n(c2=O)Cc2c-1nc1cc(F)c(C)c3c1c2[C@@H](NC(=O)C1CCNCC1)CC3 [Compound 31]
Homo sapiens, MDA-MB-468, 72 h
  IC50: 136 nM

## CC[C@@]1(O)C(=O)OCc2c1cc1n(c2=O)Cc2c-1nc1cc(F)c(C)c3c1c2[C@@H](NC(=O)CCc1ccc(N)cc1)CC3 [Compound 25]
Homo sapiens, MDA-MB-468, 72 h
  IC50: 8.63 nM

## CC[C@@]1(O)C(=O)OCc2c1cc1n(c2=O)Cc2c-1nc1cc(F)c(C)c3c1c2[C@@H](NC(=O)Cc1ccc(NC(=O)CO)cc1)CC3 [Compound 3]
Homo sapiens, MDA-MB-468, 72 h
  IC50: 43.6 nM

## CC[C@@]1(O)C(=O)OCc2c1cc1n(c2=O)Cc2c-1nc1cc(F)c(C)c3c1c2[C@@H](NC(=O)N[C@H]1CCCNC1)CC3 [Compound 12]
Homo sapiens, MDA-MB-468, 72 h
  IC50: 56.2 nM

## CC[C@@]1(O)C(=O)OCc2c1cc1n(c2=O)Cc2c-1nc1cc(F)c(C)c3c1c2[C@@H](NC(=O)N[C@H]1CCNC1)CC3 [Compound 13]
Homo sapiens, MDA-MB-468, 72 h
  IC50: 76.5 nM

## CC[C@@]1(O)C(=O)OCc2c1cc1n(c2=O)Cc2c-1nc1cc(F)c(C)c3c1c2[C@@H](NC(=O)Cc1ccc(N)cc1)CC3 [Compound 2]
Homo sapiens, MDA-MB-468, 72 h
  IC50: 3.38 nM

## CC[C@@]1(O)C(=O)OCc2c1cc1n(c2=O)Cc2c-1nc1cc(F)c(C)c3c1c2[C@@H](NC(=O)Cc1cccc(N)c1)CC3 [Compound 23]
Homo sapiens, 72 h, MDA-MB-468 cells, 3 days, CellTiter-Glo
  IC50: 2.64 nM

## CC[C@@]1(O)C(=O)OCc2c1cc1n(c2=O)Cc2c-1nc1cc(F)c(C)c3c1c2[C@@H](NC(=O)C1CNC1)CC3 [Compound 1]
Homo sapiens, MDA-MB-468, 72 h
  IC50: 135 nM

## CC[C@@]1(O)C(=O)OCc2c1cc1n(c2=O)Cc2c-1nc1cc(F)c(C)c3c1c2[C@@H](NC(=O)Cc1ccccc1N)CC3 [Compound 24]
Homo sapiens, MDA-MB-468, 72 h
  IC50: 1.65 nM

## CC[C@@]1(O)C(=O)OCc2c1cc1n(c2=O)Cc2c-1nc1cc(F)c(C)c3c1c2[C@@H](NC(=O)NCC(F)(F)F)CC3 [Compound 8]
Homo sapiens, MDA-MB-468, 72 h
  IC50: 2.72 nM

## CC[C@@]1(O)C(=O)OCc2c1cc1n(c2=O)Cc2c-1nc1cc(F)c(C)c3c1c2[C@@H](NC(=O)CCCc1ccc(N)cc1)CC3 [Compound 26]
Homo sapiens, MDA-MB-468, 72 h
  IC50: 3.28 nM
